Source: patent US7728128B2, “Dibenzo[c,h][1,5]naphthyridines and their use as DNA probes” (Institut National de la Sante et de la Recherche Medicate …, priority 2006, dated 2010)

Tests used:
[1] = test system: Methanol-fixed primary human fibroblasts; assay: nuclear fluorescence in fixed cells under continuous illumination; type: cell-based
Experimental: Primary human skin fibroblasts were grown on poly-D-lysine-coated glass coverslips and fixed in cold (−20° C.) anhydrous methanol for 15 min. Samples were re-hydrated in PBS (150 mM NaCl, 20 mM Na-phosphate, pH 7.2), rinsed with 10% PBS (diluted with water) and stained with 120 μM compound I in 10% PBS for 15 min at room temperature in the dark. Samples were mounted, without washing, using the FluorSave™ mounting medium (Calbiochem) or Mowiol and analysed within 3 hours. For image acquisition (FIG. 5B,D) cells were illuminated continuously (open shutter) for 30 min using an Omega filter set XF100-2 (see above). […] Fluorescence of each region at the last time point was taken as 100% and fluorescence intensities at the same region at previous time points (frames) were calculated using Microsoft Excel software.
To quantify this effect, live mouse fibroblasts were incubated in the presence of 5 μM compound I and time-lapse video microscopy was used to film the cells. Nuclear fluorescence develops slowly in the nuclei of cells treated with compound I and illuminated continuously using a standard Alexa488/FITC filter set (475AF40, 535AF45) (FIG. 5A). […] To test this possibility, the inventors stained nuclei of fixed cells with compound I and measured nuclear fluorescence during a continuous 30 min illumination. […]

Xenopus cells XL177 = assay: visual phenotypic screen on live Xenopus cells XL177; type: cell-based
Experimental: In this study, three different types of cells were used: Xenopus epithelial cell line XL177 (Miller, L. et al., 1977, In Vitro, 13, 557-563) stably transformed with a YFP-α-tubulin expressing construct (pEYFP-Tub, Clontech), mouse fibroblasts, and primary human skin fibroblasts. XL177 cells were grown at 20° C. in 60% Leibowitz-15 medium, supplemented with antibiotics, 10% fetal calf serum (FCS) and 10 mM HEPES, pH 7.2 with addition of 0.7 mg/ml G418. Cells were plated into glass-bottom 96-well plates (Greiner, Germany) and left to spread for 24 hours before being incubated in the presence of the test compounds from the Curie-CNRS small molecule library (at 25 or 50 μM final concentration) for another 20-24 hours. Mouse and human fibroblasts were grown in DMEM with antibiotics and 10% FCS at 37° C. in the presence of 5% CO2. The cells were observed using a Zeiss Axiovert 200M microscope with a 40× oil immersion objective and a standard Alexa488/FITC filter (Omega, XF100-2; Ex475AF40/Em535AF45/Dichroic505). Subsequent experiments were carried out using smaller concentrations of compound I and incubation times as described in the text and figures legends. For the in vivo tests of compound I-like compounds, the molecules were added to cell culture medium at 10 μM final concentration and incubated with cells 10-60 min (up to 24 hours) prior to scoring.
The signal appeared after 10-20 sec illumination and was stable for many minutes thereafter (see below).

CT DNA = assay: quantum yield, free dye and in admixture with CT DNA; type: physicochemical, calf
Experimental: (§1) Spectrometry and fluorimetry were performed using a SpectraMax384 (Molecular Devices) and a Luminescence Spectrometer LS50B (Perkin Elmer). Fluorescence emission of compound I in complex with DNA and RNA was measured in 50 mM Na phosphate buffer, pH 7.2 at room temperature. Before use, total E. coli RNA was heated to 100° C. for 1 min and immediately transferred on ice for 5 min before mixing with compound I solution. All measurements were carried out at room temperature (20-23° C.) in solutions protected from light and incubated for ˜10-15 min after dilution. The units of b/dye and bp/dye are defined as moles of RNA bases or DNA base pairs per mole of dye. Quantum yield was measured using quinine sulphate as standard as described in (Iupac Commission on Photochemistry, EPA Newsletter of November 1986, 21-29) using FLUOROMAX-3 Spex Spectrofluorometer (HORIBA) and UVIKON XL Spectrophotometer (SECOMAM).
Although compound I also stains mitotic chromosomes (FIG. 1D), theoretically it was possible that it binds specifically to DNA-associated proteins (for example histones) rather than to nucleic acids. To resolve this issue, the absorption and emission spectra of free compound I before and after addition of dsDNA were recorded. […] Molar extinction coefficient (EC) of free compound I at 391 nm was measured at 10,800 cm^−1 M^−1. […]

[2] = test system: dA/dT and dG/dC homopolymers; assay: fluorescence and absorption with dA/dT and dG/dC homopolymers; type: binding
Experimental: Plasmid dsDNA was purified using a Qiagen Maxiprep kit and used in the supercoiled form for absorption and fluorescence studies. E. coli total RNA was bought from Ambion, dA/dT and dG/dC homopolymers were purchased from Amersham Biosciences. Calf thymus (CT) high-molecular weight DNA and Hoechst 33258 were obtained from Sigma-Aldrich. Ethidium bromide was purchased from Amresco.
as §1
Many intercalating dyes and minor groove-binding DNA dyes can interact differently with dA/dT or dG/dC DNA tracts. […] To investigate the properties of compound I when bound to different DNA tracts, the inventors examined its fluorescence in admixture with an excess of plasmid DNA and either dA/dT or dG/dC homopolymers. […] The peak at 484 nm was much more pronounced when plasmid DNA was replaced by the dA/dT homopolymers (see also FIG. 1F). […] In FIG. 3C, the graphs show emission spectra upon excitation at 371 nm to allow plotting the emission of free compound I. Similar results were obtained when exciting DNA/compound I complexes at 391 and 435 nm.

SMILES: COc1ccc2c(c1)c(C)nc1c3ccc(OC)cc3c(NCCCN(C)C)nc21 [Compound I, N′-(2,8-dimethoxy-12-methyl-dibenzo[c,h][1,5]naphthyridin-6-yl)-N,N-dimethyl-propane-1,3-diamine]
- average pixel values in a representative nucleus ([1]; plane (1), start of 30 min illumination): 512
- average pixel values in a representative nucleus ([1]; plane (1800), end of 30 min illumination): 1434
- illumination time before nuclear signal appeared (Xenopus cells XL177; Alexa488/FITC filter): 10 to 20 s
- cell membrane permeability (Xenopus cells XL177; live cells): cell-membrane permeant
- toxicity in cultured cells (Xenopus cells XL177; standard cell culture conditions): non-toxic under standard cell culture conditions (up to six days in culture)
- quantum yield (CT DNA; free dye, 5 μM, 50 mM Na-phosphate pH 7.2, excited at 435 nm): 2.7%
- quantum yield (CT DNA; in admixture with 50 μM CT DNA, 5 μM dye, excited at 435 nm): 13.8%
- reduction of fluorescence peak at 438 nm with dG/dC homopolymer ([2]; 1 μM dye, homopolymer at 40 μM): 12.7 fold
- fluorescence at 484 nm with dG/dC homopolymer, lower compared to dA/dT ([2]; 1 μM dye, homopolymers at 40 μM): 9.5 fold
- emission maximum ([2]; dA/dT homopolymers at bp/dye ratio 40): 484 nm
- difference in fluorescence bound to dA/dT and dG/dC homopolymers ([2]; dye/bp ratio 8, 5 μM dye, emission 484 nm, excitation 435 nm): 23 fold
- absorption at 435 nm, dG/dC superior to dA/dT ([2]; higher bp/dye ratios): ~30%
